Experimental data reported in US7273880B2, “Selective NPY (Y5) antagonists” (H. Lunbeck A/S, priority 1999, dated 2007).
Counter-ions that a name gives are not always drawn.

SMILES | melting point
COc1ccc(C)cc1S(=O)(=O)NCCOCCNc1nc2c(s1)CCCc1ccc(F)cc1-2 (as salt: HCl) [Example 58, 1-Aza-9-fluoro-4,5-dihydro-2-{2-[2-(2-methoxy-5-methylphenyl)sulfonylamino]ethoxy}ethylamino-3-thia-benzo[e]azulene] | 56 to 60 °C
CC(C)S(=O)(=O)NCCOCCNc1nc2c(s1)CCCc1ccc(F)cc1-2 (as salt: HCl) [Example 69, 1-Aza-9-fluoro-4,5-dihydro-2-(2-(2-isopropyl-sulfonylamino)-ethoxy)ethylamino-3-thia-benzo[e]-azulene] | 50 to 55 °C
O=C1OCCN1C[C@H]1CC[C@H](Nc2nc3c(s2)CCCc2ccc(F)cc2-3)CC1 (as salt: HCl) [Example 79, 3-({4-[(9-fluoro-5,6-dihydro-4H-benzo[6,7]cyclohepta-[d][1,3]thiazol-2-yl)amino]cyclohexyl}methyl)-1,3-oxazolan-2-one] | 223 to 225 °C
COCC(=O)NC[C@H]1CC[C@H](Nc2nc3c(s2)CCCc2ccc(F)cc2-3)CC1 (as salt: HCl) [Example 80, N1-({4-[(9-fluoro-5,6-dihydro-4H-benzo[6,7]-cyclohepta-[d][1,3]thiazol-2-yl)amino]cyclohexyl}-methyl)-2-methoxyacetamide] | 63 to 65 °C
COCC(=O)NCc1ccc(Nc2nc3c(s2)CCCc2ccc(F)cc2-3)cc1 (as salt: HCl) [Example 89, N1-{4-[(9-fluoro-5,6-dihydro-4H-benzo[6,7]cyclohepta-[d][1,3]thiazol-2-yl)amino]benzyl}-2-methoxyacetamide] | 175 to 178 °C
O=S(=O)(CC(F)(F)F)NCCCCNc1nc2c(s1)CCCc1ccc(F)cc1-2 (as salt: TFA) [Example 39, 1-Aza-9-fluoro-4,5-dihydro-2-(4-(2,2,2-trifluoroethyl)-sulfonylamino)butylamino-3-thia-benzo[e]azulene] | 140 to 141 °C
CCOC(=O)N[C@H]1CC[C@H](CNc2nc3c(s2)CCCc2ccc(F)cc2-3)CC1 (as salt: hydrochloride) [Example 68, trans-N2-(4-Ethoxycarbonylamino)cyclohexylmethyl-9-fluoro-5,6-dihydro-4H-benzo[6,7]cyclohepta[d][1,3]-thiazol-2-amine hydrochloride] | 94 to 97 °C
O=S(=O)(N[C@H]1CC[C@H](Nc2nc3c(s2)CCCc2ccc(F)cc2-3)CC1)c1cccnc1 (as salt: salt) [Example 54, trans-1-Aza-9-fluoro-4,5-dihydro-2-(4-(3-pyridyl-sulfonylamino)cyclohexyl)amino-3-thia-benzo[e]azulene] | 165 to 167 °C
O=S(=O)(NCCCCCNc1nc2c(s1)CCCc1ccc(F)cc1-2)c1cccnc1 (as salt: salt) [Example 55, 1-Aza-9-fluoro-4,5-dihydro-2-(5-(3-pyridyl)sulfonyl-amino)pentylamino-3-thia-benzo[e]azulene] | 84 to 86 °C
O=S(=O)(NCCCCNc1nc2c(s1)CCCc1ccc(F)cc1-2)c1cccnc1 (as salt: salt) [Example 56, 1-Aza-9-fluoro-4,5-dihydro-2-(4-(3-pyridyl)sulfonyl-amino)butylamino-3-thia-benzo[e]azulene] | 101 to 103 °C
O=S(=O)(NC[C@H]1CC[C@H](Nc2nc3c(s2)CCCc2ccc(F)cc2-3)CC1)c1cccnc1 (as salt: salt) [Example 59, trans-1-Aza-9-fluoro-4,5-dihydro-2-(4-(3-pyridyl)-sulfonylaminomethyl)cyclohexylamino-3-thia-benzo[e]-azulene] | 127 to 129 °C
CC(C)N(C=O)C[C@H]1CC[C@H](Nc2nc3c(s2)CCCc2ccc(F)cc2-3)CC1 (as salt: salt) [Example 83, trans-1-Aza-9-fluoro-4,5-dihydro-2-(4-(N-isopropyl-formamido)methyl)cyclohexylamino-3-thia-benzo[e]-azulene] | 106 to 107 °C

Other lines, results leading:

melting point | SMILES
100 to 105 °C (dec.) | COc1ccc(C)cc1S(=O)(=O)NC[C@H]1CC[C@H](Nc2nc3c(s2)CCOc2ccccc2-3)CC1 (as salt: HCl) [Example 48, trans-1-Aza-4,5-dihydro-2-{4-(2-methoxy-5-methyl)phenyl-sulfonylaminomethyl}cyclohexylamino-6-oxa-3-thia-benzo[e]azulene]
200 to 215 °C | COc1ccc2c(c1)-c1nc(NC[C@H]3CC[C@H](NS(C)(=O)=O)CC3)sc1CCO2 (as salt: HCl) [Example 63, trans-1-Aza-4,5-dihydro-9-methoxy-2-{4-methylsulfonyl-amino}cyclohexylmethylamino-6-oxa-3-thia-benzo[e]azulene]
206 to 208 °C | COc1cccc2c1OCCc1sc(NC[C@H]3CC[C@H](NS(=O)(=O)N(C)C)CC3)nc1-2 (as salt: HCl) [Example 66, trans-1-Aza-4,5-dihydro-7-methoxy-2-{4-dimethylamino-sulfonylamino}cyclohexylmethylamino-6-oxa-3-thia-benzo[e]azulene]
234 to 237 °C | COCC(=O)N[C@H]1CC[C@H](CNc2nc3c(s2)CCOc2ccccc2-3)CC1 (as salt: HCl) [Example 84, N1-{4-[(4,5-dihydrobenzo[2,3]oxepino[4,5-d][1,3]thiazol-2-ylamino)methyl]cyclohexyl}-2-methoxyacetamide]
164 to 166 °C | COCCN(C=O)[C@H]1CC[C@H](CNc2nc3c(s2)CCOc2ccccc2-3)CC1 (as salt: HCl) [Example 86, N-{4-[(4,5-dihydrobenzo[2,3]oxepino[4,5-d][1,3]thiazol-2-ylamino)methyl]cyclohexyl}-N-(2-methoxyethyl)formamide]
210 to 213 °C | CCN(C=O)[C@H]1CC[C@H](CNc2nc3c(s2)CCOc2ccccc2-3)CC1 (as salt: HCl) [Example 87, trans-1-Aza-2-(4-(n-(ethyl) formamido)cyclohexyl)methyl-amino-4,5-dihydro-6-oxa-3-thia-benzo[e]azulene]
195 to 197 °C | CCCN(C=O)[C@H]1CC[C@H](CNc2nc3c(s2)CCOc2ccccc2-3)CC1 (as salt: HCl) [Example 88, N-{4-[(4,5-Dihydrobenzo[2,3]oxepino[4,5-d][1,3]-thiazol-2-ylamino)methyl]cyclohexyl}-N-propyl-formamide]
225 to 230 °C | COc1cccc2c1OCCc1sc(NC[C@H]3CC[C@H](NS(C)(=O)=O)CC3)nc1-2 (as salt: hydrochloride) [Example 65, trans-N2-(4-Methylsulfonylamino)cyclohexylmethyl-7-methoxy-4,5-dihydro-benzo[2,3]oxepino[4,5-d][1,3]-thiazol-2-amine hydrochloride]
130 to 132 °C | COc1ccc2c(c1)CCCc1sc(N[C@H]3CC[C@H](CNS(=O)(=O)N4CCOCC4)CC3)nc1-2 (as salt: hydrochloride) [Example 78, trans-N2-(4-(1-Morpholinylsulfonylaminomethyl)-cyclohexyl-8-methoxy-5,6-dihydro-4H-benzo[6,7]-cyclohepta[d][1,3]thiazol-2-amine hydrochloride]
140 to 144 °C | CS(=O)(=O)NCC1CCC(Nc2nc3c(s2)COc2ccccc2-3)CC1 (stereo not drawn) (as salt: salt) [Example 70, 2-(4-Methylsulfonylaminomethyl)cyclohexylamino-4H-chromeno[4,3-d]thiazole]
94 to 97 °C | COc1ccc2c(c1)CCCc1sc(NC[C@H]3CC[C@H](NS(C)(=O)=O)CC3)nc1-2 (as salt: salt) [Example 71, trans-1-Aza-4,5-dihydro-8-methoxy-2-(4-methylsulfonyl-amino)cyclohexylmethylamino-3-thia-benzo[e]azulene]
87 to 89 °C | COc1ccc2c(c1)CCCc1sc(N[C@H]3CC[C@H](CNS(=O)(=O)C(C)C)CC3)nc1-2 (as salt: salt) [Example 73, trans-1-Aza-4,5-dihydro-2-(4-isopropylsulfonyl-aminomethyl)-cyclohexylamino-8-methoxy-3-thia-benzo[e]-azulene]
